Assay results reported in US20200078471A1, “RENAL CLEARABLE DRUG DELIVERING NANOPARTICLES AND METHODS OF USE THEREFOR” (priority 2018, published 2020).
Entries after “also recorded” stand apart in the source; their conditions may differ.

How the values were obtained:
[1] = Renal clearance (urine DOX by HPLC, gold by ICP-MS); assay type: in vivo, female CD-1 mice; conditions: 24 hr p.i., intravenous
Excerpt: (§1) Clearance, physiological stability, and elimination. […] The DOX concentrations were quantified based on fluorescence analysis.

[2] = DOX and AuNP biodistribution in organs and tissues; assay type: in vivo, CD-1 mice
Excerpt: as §1

[3] = Acute toxicity, successive treatment (body weight, blood chemistry, H&E)
Protocol: (§2) Toxicity studies. […] For blood chemistry study, the blood was collected through cardiac puncture 15 days p.i. and kept on ice for 30 min for coagulation. […] The organs and tissues were also collected, fixed in formalin (10%) and embedded in paraffin before H&E staining and pathological evaluation. […] The mice were sacrificed on 10 days p.i. and the blood were extracted via cardiac puncture.

[4] = Maximal tolerated dose, single dose; conditions: single i.v. dose, 10 days
Protocol: as §2

[5] = system: MCF-7 human breast cancer xenograft; experiment: Tumor targeting efficiency; assay type: in vivo, nude mice; conditions: 12 hr p.i., DOX 5 mg/kg i.v.
Protocol: Tumor targeting, penetration and antitumor efficacy studies. […] The tumors were collected and homogenized and DOX concentrations were measured using the same approaches described in the biodistribution studies. The ex vivo tumor fluorescence imaging was acquired using a Carestream Molecular imaging system In-Vivo FX PRO with an excitation filter of 470±10 nm and an emission filter of 600±20 nm. […] The mice were sacrificed 12 hr and 3 days p.i. respectively. Tumor tissues were fixed, embedded in paraffin and sliced before haematoxylin and eosin (H&E), and silver staining. To enable visualization of AuNPs in the tumor issues, dewaxed tumor slides were incubated with silver nitrate (0.1 M) and hydroquinone (2 mM) for 15 min at room temperature, followed by washing with pure water and haemotoxylin and eosin staining (Du et al., 2017). […] The length (L) and width (W) of the tumors were measured with a digital calliper and the volume (V) was calculated by the equation V=½ LW^2. The body weights were also monitored during the treatment. […] For survival study, the tumor bearing mice were treated same with therapeutic study, and tumor sizes were monitored. […] To establish the metastatic lung cancer model, female Balb/c mice were implanted with 4T1 mammary cancer cells subcutaneously and the cancer cells would be readily developed as lung metastatic nodules after a week.

4T1 lung metastasis = experiment: Metastatic lung cancer model, nodule count and size; assay type: in vivo, female Balb/c mice; conditions: 5 mg/kg DOX equivalent ×5, day 23
[6] = Pharmacokinetic study, DOX in blood
Protocol: Clearance, physiological stability, and elimination. […] Since DOX is highly fluorescent, the fluorescence signals were collected at 610 nm with excitation at 470 nm. […] Extraction was performed at −20° C. for overnight and supernatant was obtained after centrifugation at 15,000 g for 10 min. The DOX concentrations were quantified based on fluorescence analysis. […] For pharmacokinetic study, the DOX concentrations in blood were analysed using HPLC with the same approach described above.

[7] = equivalent DOX 5 mg/kg ×5, within 10 days

COc1cccc2c1C(=O)c1c(O)c3c(c(O)c1C2=O)C[C@@](O)(C(=O)CO)C[C@@H]3O[C@H]1C[C@H](N)[C@H](O)[C@H](C)O1 [free DOX, doxorubicin]
DOX-based renal clearance (renally cleared DOX) [1]: 6.1±1.1 % ID | DOX distribution in the kidneys ([2]; 1 hr p.i.): 11.4 % ID/g | DOX accumulation in the liver ([2]; 24 h p.i.): even lower accumulation in the liver | decrease of muscle DOX from 1 to 24 h ([2]; mouse, in vivo): 19.7% | hepatocyte anisocaryosis and anisocytosis (H&E liver) ([3]; 15 days p.i.): increase in hepatocyte anisocaryosis and anisocytosis; also recorded: evident | hepatocyte nuclei size distribution width ([3]; 15 days p.i.): significant higher distribution width | pathological signs in heart, kidney, spleen and muscle ([3]; 15 days p.i.): no observable pathological signs | blood chemistry, liver function (ALT, AST, ALKP, albumin) ([3]; 15 days p.i., 5 mg/kg ×5): increased alanine aminotransferase (ALT) and aspartate aminotransferase (AST) levels and decreased alkaline phosphatase (ALKP) and albumin levels in serum | blood chemistry, renal function (BUN, CREA) ([3]; 15 days p.i., 5 mg/kg ×5): increased blood urea nitrogen (BUN) and creatinine (CREA) levels in serum | body weight loss [3, 7]: ~10% | mortality [3, 7]: 25% | maximal tolerance dose (MTD, in terms of DOX) [4]: 10 mg/kg body weight | tumor targeting of DOX [5]: 0.79±0.22 % ID/g | count of metastatic tumor nodules in the lungs (per mouse) (4T1 lung metastasis): 62.6±30.5 | size of metastatic lung tumor nodules (4T1 lung metastasis): 1.64±0.77 mm | 24-h area under curve (AUC) ([6]; DOX in blood): 2.2 % ID·h/g | distribution half-life t1/2a ([6]; plasma, CD-1 mice): 4.8 min
